The values that follow are results of earlier work, collected in patent US20180185484A1, “PREPARATION AND USE OF PLATELET PRODUCTS” (Cerus Corporation, priority 2015, published 2018).

This series relates to T lymphocytes. The conditions noted are these: treated platelet preparations, after photoactivation; Grass et al., 1998.

Regarding `Cc1oc2c(C)c3oc(=O)cc(C)c3cc2c1COCCN` [amotosalen, 4′-(4-amino-2-oxa)butyl-4,5′,8-trimethylpsoralen], the “reduction of viable T lymphocytes” value is recorded as “greater than 5 logs”.
